As a reminder, the IC50 is the midpoint of a concentration-inhibition curve.

These results are taken from patent US8993630B2, “Substituted sulphonamido phenoxybenzamides” (Bayer Intellectual Property GmbH, priority 2008, dated 2015).

Assay [1] deals with T1, MEK1 (Homo sapiens, UniProt Q02750).
T1 construct: purchased Millipore 14-420 (GST-MEK1); 14-703 (Cot1); host or cells: Cot1: insect cells (SF21)
Nature of the assay: MEK1 activation kinase assay (Cot1/GST-MEK1 HTRF). To be noted: GST-MEK1 substrate, read-out: IC50, inhibition of MEK1 activation. Type of assay: biochemical. An excerpt:
The kinase Cot1 activates MEK1 by phosphorylating its activation loop. The inhibitory activity of compounds of the present invention on this activation of MEK1 was quantified employing the HTRF assay described in the following paragraphs.
N-terminally His6-tagged recombinant kinase domain of the human Cot1 (amino acids 30-397, purchased from Millipore, cat. no 14-703) expressed in insect cells (SF21) and purified by Ni-NTA affinity chromatography was used as kinase. As substrate for the kinase reaction the unactive C-terminally His6-tagged GST-MEK1 fusion protein (Millipore cat. no 14-420) was used.
For the assay 50 nl of a 100fold concentrated solution of the test compound in DMSO was pipetted into a black low volume 384well microtiter plate (Greiner Bio-One, Frickenhausen, Germany), 3 μl of a solution of 24 nM GST-MEK1 and 166.7 μM adenosine-tri-phosphate (ATP) in assay buffer [50 mM Tris/HCl pH 7.5, 10 mM MgCl2, 2 mM dithiothreitol, 0.01% (v/v) Igepal CA 630 (Sigma), 5 mM β-phospho-glycerol] were added and the mixture was incubated for 10 min at 22° C. to allow pre-binding of the test compounds to the GST-MEK1 before the start of the kinase reaction. Then the kinase reaction was started by the addition of 2 μl of a solution of Cot1 in assay buffer and the resulting mixture was incubated for a reaction time of 20 min at 22° C. The concentration of Cot1 in the assay was adjusted depending of the activity of the enzyme lot and was chosen appropriate to have the assay in the linear range, typical enzyme concentrations were in the range of about 2 ng/μl (final conc. in the 5 μl assay volume). The reaction was stopped by the addition of 5 μl of a solution of HTRF detection reagents (13 nM anti GST-XL665 [# 61GSTXLB, Fa. Cis Biointernational, Marcoule, France], 1 nM Eu-cryptate labelled anti-phospho-MEK 1/2 (Ser217/221) [#61P17KAZ, Fa. Cis Biointernational],) in an aqueous EDTA-solution (100 mM EDTA, 500 mM KF, 0.2% (w/v) bovine serum albumin in 100 mM HEPES/NaOH pH 7.5).
The resulting mixture was incubated 2 h at 22° C. to allow the binding of the phosphorylated GST-MEK1 to the anti-GST-XL665 and the Eu-cryptate labelled anti-phospho-MEK 1/2 antibody. Subsequently the amount of Ser217/Ser221-phosphorylated substrate was evaluated by measurement of the resonance energy transfer from the Eu-Cryptate-labelled anti-phospho-MEK antibody to the anti-GST-XL665. Therefore, the fluorescence emissions at 620 nm and 665 nm after excitation at 350 nm was measured in a HTRF reader, e.g. a Rubystar (BMG Labtechnologies, Offenburg, Germany) or a Viewlux (Perkin-Elmer). The ratio of the emissions at 665 nm and at […] was taken as the measure for the amount of phosphorylated substrate. […]
(Time-resolved FRET reads energy transfer from a long-lived donor to a nearby acceptor.)

The subject of assay [2] is A375 cells. Nature of the assay: A375 proliferation crystal violet (CV) assay. Type of assay: cell-based. To be noted: Homo sapiens, A-375, 96 h, 4 days, crystal violet staining. On the procedure:
Cultivated human A375 cells were plated out in a density of 1500 cells/measurement point in 200 μl of growth medium (DMEM/HAMS F12 (Biochrom; FG4815) with 10% FBS and 2 mM Glutamine) in a 96-well multititer plate. After 24 hours, the cells from a plate (zero plate) were stained with crystal violet (see below), while the medium in the other plates was replaced by fresh culture medium (200 μl) to which the test substances had been added in various concentrations (0 μM, and in the range 0.3 nM -30 μM; the final concentration of the solvent dimethyl sulphoxide was 0.5%). The cells were incubated in the presence of the test substances for 4 days. The cell proliferation was determined by staining the cells with crystal violet: the cells were fixed by adding 20 μl/measurement point of an 11% glutaraldehyde solution at room temperature for 15 min. After the fixed cells had been washed three times with water, the plates were dried at room temperature. […] The dye was dissolved by adding 100 μl/measurement point of a 10% acetic acid solution, and the extinction was determined by photometry at a wavelength of 595 nm. The percentage change in cell growth was calculated by normalizing the measurements to the extinctions of the zero point plate (=0%) and the extinction of the untreated (0 μM) cells (=100%). The IC50 values were determined by means of a 4-parameter fit using the company's own software.

Assay [3] relates to colon cancer. To be noted: oral treatment, mouse models; cited from earlier work.
Assay [4] has as its system MEK1/2. To be noted: cited from earlier work.

Bounds are passed on as bounds.

T1 sequence (Q02750 whole entry): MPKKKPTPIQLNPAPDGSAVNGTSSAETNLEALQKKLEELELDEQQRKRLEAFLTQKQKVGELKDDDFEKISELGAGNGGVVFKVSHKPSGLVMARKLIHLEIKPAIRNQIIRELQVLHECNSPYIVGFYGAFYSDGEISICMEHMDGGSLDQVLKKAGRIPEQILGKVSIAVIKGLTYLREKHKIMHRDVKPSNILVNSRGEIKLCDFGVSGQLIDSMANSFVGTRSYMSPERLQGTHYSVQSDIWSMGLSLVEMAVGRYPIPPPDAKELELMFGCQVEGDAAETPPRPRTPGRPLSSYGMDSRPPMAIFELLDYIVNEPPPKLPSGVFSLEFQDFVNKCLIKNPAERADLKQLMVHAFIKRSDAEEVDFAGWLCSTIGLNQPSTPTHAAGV

For the molecule `CCS(=O)(=O)Nc1cccc(Oc2cc(F)cc(Nc3ccc(I)cc3F)c2C(N)=O)c1` [Example Compound 1.1, 2-(3-ethanesulfonylamino-phenoxy)-4-fluoro-6-(2-fluoro-4-iodo-phenylamino)-benzamide], the IC50 in assay [1] is < 300 nM; in assay [2], < 100 nM.

In the case of `CC(C)S(=O)(=O)Nc1cccc(Oc2cc(F)cc(Nc3ccc(I)cc3F)c2C(N)=O)c1` [Example Compound 1.2, 4-fluoro-2-(2-fluoro-4-iodo-phenylamino)-6-[3-(propane-2-sulfonylamino)-phenoxy]-benzamide], the values for the IC50 in assay [1] and in assay [2] were < 300 nM and < 100 nM, respectively.

For `CC(C)S(=O)(=O)Nc1cncc(Oc2cc(F)cc(Nc3ccc(I)cc3F)c2C(N)=O)c1` [Example Compound 2.1, 4-fluoro-2-(2-fluoro-4-iodo-phenylamino)-6-[5-(propane-2-sulfonylamino)-pyridin-3-yloxy]-benzamide], the IC50 in assay [1] is < 300 nM.

On to `CCS(=O)(=O)Nc1cccc(COc2cc(F)cc(Nc3ccc(I)cc3F)c2C(N)=O)c1` [Example Compound 3.1, 2-(3-ethanesulfonylamino-benzyloxy)-4-fluoro-6-(2-fluoro-4-iodo-phenylamino)-benzamide], for which the IC50 in assay [1] was < 300 nM.

`O=C(NOCC1CC1)c1ccc(F)c(F)c1Nc1ccc(I)cc1Cl` [PD184352]: the “colon cancer growth in vivo” value in assay [3] was “inhibit colon cancer growth in vivo in mouse models”. In addition, the IC50 entry in assay [4] is reported as “low nanomolar range”.
